Results: PMC6884575, “Suppression of FOXM1 activities and breast cancer growth in vitro and in vivo by a new class of compounds” (NPJ Breast Cancer, 2019)
pIC50: −log10 of the molar value.

Experiments:
[1] = tested on: human breast cancer cell lines (DT22, MCF7, T47D, BT474, MDA-MB-453, MDA-MB-468, MDA-MB-231); assay: Cell proliferation (WST-1) in panel of breast cancer cell lines; assay type: cell-based
Protocol: WST-1 assay (Roche, Basel, Switzerland) was used to quantify cell viability as described.[38] Absorbance was measured at 450 nm using a VICTOR X5 PerkinElmer 2030 Multilabel Plate Reader. All assays were performed in triplicate and analyzed using Graph Pad Prism 8.0.

[2] = tested on: FOXM1 target gene expression in MCF7 cells; assay: FOXM1 target gene expression by qRT-PCR; assay type: cell-based, human; conditions: MCF7, 24 h, compound at its IC50 for proliferation
Protocol: Total RNA was isolated using TRIzol (Invitrogen) and reverse transcribed using […] reverse transcriptase (New England BioLabs). Real-time PCR was performed using SYBRgreen PCR Master Mix (Quantabio) as described.[15] Relative mRNA levels of genes were normalized to the housekeeping gene 36B4, and fold-change calculated relative to the vehicle treated samples. Results are the average ± SD from at least two independent experiments carried out in triplicate. Primer sequences for the genes studied were obtained from the Harvard Primer Bank. Sequences are available on their website.

MCF7 cells = assay: RNA-Seq gene regulation in MCF7 cells; assay type: cell-based, human
Protocol: For gene expression analysis, total RNA was extracted from cells using Trizol reagent and further cleaned using the Turbo DNase and RNAqueous kits (ThermoFisher). Cells were treated with Veh (0.1% EtOH), or with the compounds indicated for 9 h or 24 h. Once the sample quality and replicate reproducibility were verified, samples from each group were subjected to sequencing. RNA at a concentration of 100 ng/µl in nuclease-free water was used for library construction. cDNA libraries were prepared with the mRNA-TruSeq Kit (Illumina, Inc.). In brief, the poly-A containing mRNA was purified from total RNA, the RNA was fragmented, double-stranded cDNA was generated from fragmented RNA, and adapters were ligated to the ends.
The paired-end read data from the HiSeq 4000 were processed and analyzed through a series of steps. Base calling and de-multiplexing of samples within each lane were done with Casava 1.8.2. The RNA sequences were prepared with Illumina’s TruSeq Stranded mRNAseq Sample Prep kit. Reads were trimmed of adapters and low expression data using Trimmomatic version 0.38.[42] The STAR alignment tool version 2.5.3a was used to align the sequenced reads to the GRCh37 human genome from Ensembl.[43] Gene counts were calculated using subread version 1.5.2.[44],[45] The edgeR Bioconductor package in R was used for normalization and differential expression analysis. Default normalization methods were used, specifically trimmed mean of M values or TMM was used to calculate the normalized expression values. This method calculates the weighted trimmed mean of the log expression ratios in a gene-wise fashion.[46],[47] We considered genes with fold-change > 2 and p-value < 0.05 as statistically significant, differentially expressed.

[3] = tested on: DT22 breast tumor xenografts; assay: DT22 human breast tumor xenograft growth in NSG mice; assay type: in vivo
Protocol: For examination of the effects of compounds on breast tumor growth suppression, intact female NOD/SCID-gamma (NSG) mice were used as detailed previously.[39] DT-22 breast cancer cells (1 × 10^6 cells/mouse) were injected s.c. into the right axial mammary gland. Mice received s.c. injection or oral gavage daily or every second or third day as indicated, with vehicle or treatment compound, and tumor volume (length × width^2/2) was monitored over time.

FOXM1 [4] = biological target: T1, FOXM1 (Homo sapiens, UniProt Q08050); assay: Cellular FOXM1 protein level by Western blot; assay type: cell-based; design: endogenous in cells; host or cells: MDA-MB-231, MCF7; conditions: MDA-MB-231 or MCF7 cells over time; NB-55 5/8 µM, NB-73 1.5/4 µM, NB-115 4 µM, FDI-6 8 µM
T1 sequence (Q08050 1-763): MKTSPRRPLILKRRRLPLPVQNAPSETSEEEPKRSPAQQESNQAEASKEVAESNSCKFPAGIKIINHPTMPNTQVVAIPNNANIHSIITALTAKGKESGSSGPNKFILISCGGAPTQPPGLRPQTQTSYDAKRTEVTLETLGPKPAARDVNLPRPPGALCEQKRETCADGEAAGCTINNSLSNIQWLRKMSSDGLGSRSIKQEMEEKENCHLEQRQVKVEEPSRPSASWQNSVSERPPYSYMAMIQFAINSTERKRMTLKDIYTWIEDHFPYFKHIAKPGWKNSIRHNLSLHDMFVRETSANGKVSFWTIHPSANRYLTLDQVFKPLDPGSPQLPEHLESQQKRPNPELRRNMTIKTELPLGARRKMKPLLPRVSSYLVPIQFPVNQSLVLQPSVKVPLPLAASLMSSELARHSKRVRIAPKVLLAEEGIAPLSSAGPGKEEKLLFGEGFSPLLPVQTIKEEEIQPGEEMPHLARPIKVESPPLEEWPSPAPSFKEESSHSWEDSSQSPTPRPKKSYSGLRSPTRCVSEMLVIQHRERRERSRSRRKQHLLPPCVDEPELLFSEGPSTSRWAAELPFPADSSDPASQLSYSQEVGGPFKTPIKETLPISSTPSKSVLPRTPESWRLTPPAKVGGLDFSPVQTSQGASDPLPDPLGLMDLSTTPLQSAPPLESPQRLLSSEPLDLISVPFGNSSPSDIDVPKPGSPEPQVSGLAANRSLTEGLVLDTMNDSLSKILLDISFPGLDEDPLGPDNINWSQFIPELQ
Protocol: For Western blot analysis, whole-cell extracts were prepared using 1X RIPA lysis buffer (Thermo Fisher) supplemented with 1X protease inhibitor cocktail (Millipore Sigma). […] In some cases, treatments with compound were done in the presence of the proteasome inhibitor MG132 (Calbiochem) as described in the figure legend. […] Band intensities were analyzed with Licor Odyssey 2.1 software. All blots shown together derive from the same experiment and were processed in parallel. Full uncropped images of blots are shown as supplementary figures in the Supplementary Information file. Molecular weight markers were Rainbow markers from GE Healthcare (38–225 kDa) or Precision Plus Dual Color Markers from Biorad (37–250 kDa).

FOXM1 [5] = biological target: T1, FOXM1; assay: Intracellular localization of FOXM1 (immunofluorescence, nuclear/cytoplasmic fractionation); assay type: cell-based; design: endogenous in cells; host or cells: MDA-MB-231, MCF7; conditions: 24 h, Western blot of nuclear and cytoplasmic extracts
Protocol: In some cases, treatments with compound were done in the presence of the proteasome inhibitor MG132 (Calbiochem) as described in the figure legend. […] Band intensities were analyzed with Licor Odyssey 2.1 software. All blots shown together derive from the same experiment and were processed in parallel. Full uncropped images of blots are shown as supplementary figures in the Supplementary Information file. Molecular weight markers were Rainbow markers from GE Healthcare (38–225 kDa) or Precision Plus Dual Color Markers from Biorad (37–250 kDa).

- pIC50 ([1]; Homo sapiens, breast cancer cell lines, read-out: IC50 for inhibition of proliferation): 5.00 to 5.70
- intracellular level of FOXM1 (FOXM1 [4]): reduced the intracellular level of FOXM1
SMILES: Clc1ccc(C(=C2C3CC4CC(C3)CC2C4)c2ccc(OCCCCCCN3CCCC3)cc2)cc1 [NB-55]
- reduced potency in suppression of cell proliferation ([1]; dose-response studies in cells in culture): 5 fold
- expression of ATF3, a gene suppressed by FOXM1 [2]: increased expression of ATF3
- expression of FOXM1 stimulated target genes (FOXM1C, AURKB, CCNB1, PLK1) [2]: significantly reduced the expression
- genes regulated that overlapped with NB-73 regulated genes (MCF7 cells; MCF7, 9 h, more than 2-fold, FDR < 0.05): 72%
- genes regulated more than 2-fold (Venn diagram) (MCF7 cells; MCF7, 9 h treatment, p < 0.05, FDI-6 20 µM): 567 genes
- tumor suppression ([3]; 20 or 40 mg/kg doses (data not shown)): only marginally effective
- growth of human breast tumor xenografts ([3]; DT22 tumors, NSG mice, 100 mg/kg oral gavage daily): very effectively suppressed the growth
- intracellular localization of FOXM1 (FOXM1 [5]): does not change the intracellular localization of FOXM1
